# Experiments:
# 5-LO [1] = target: T1, 5-LO (Homo sapiens, UniProt P09917); assay: Eicosanoid production from human whole blood (HWB/LTB4: ionophore induced LTB4); assay type: cell-based; set-up: from tissue; host or cells: pooled human whole blood
# T1 sequence (P09917 1-674): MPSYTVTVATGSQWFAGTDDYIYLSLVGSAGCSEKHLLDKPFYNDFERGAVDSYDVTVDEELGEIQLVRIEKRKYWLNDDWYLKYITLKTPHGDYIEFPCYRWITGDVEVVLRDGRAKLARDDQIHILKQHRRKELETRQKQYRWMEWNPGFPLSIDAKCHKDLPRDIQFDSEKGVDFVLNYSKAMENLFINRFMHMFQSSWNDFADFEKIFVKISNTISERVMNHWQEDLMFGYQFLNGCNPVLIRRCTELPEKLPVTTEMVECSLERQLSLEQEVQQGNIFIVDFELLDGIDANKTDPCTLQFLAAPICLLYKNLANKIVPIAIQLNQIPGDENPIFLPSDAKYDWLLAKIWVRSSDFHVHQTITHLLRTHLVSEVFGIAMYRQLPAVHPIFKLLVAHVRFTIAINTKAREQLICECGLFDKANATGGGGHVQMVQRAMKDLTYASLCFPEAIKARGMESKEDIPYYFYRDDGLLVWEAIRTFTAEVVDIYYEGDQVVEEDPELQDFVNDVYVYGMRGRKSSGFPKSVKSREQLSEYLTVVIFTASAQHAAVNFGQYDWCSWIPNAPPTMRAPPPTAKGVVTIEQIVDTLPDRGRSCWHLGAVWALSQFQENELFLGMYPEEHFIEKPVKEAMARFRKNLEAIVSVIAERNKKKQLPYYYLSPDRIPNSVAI
# Experimental: Human whole blood was collected from healthy or asthmatic human donors in 10 ml heparinized tubes (Vacutainer tubes; Becton Dickenson, Franklin Lakes, N.J.). Collected blood was pooled and 80 μl was dispensed into each well of 384 well polypropylene plates using a Multi-Drop™ 384-well dispenser (Titertek, Huntsville, Ala.). Varying concentrations of compounds were dissolved in DMSO then 2 μl/well was added to the blood using a PlateMate Plus™ automated pipetting station (Matrix Technologies, Hudson, N.H.). The compounds were preincubated with the blood at room temperature for 10 minutes followed by stimulation with 40 μl calcium ionophore (A23187, Sigma Chemical Co, St. Louis, Mo., Cat. # C-7522) and 30 μl arachidonic acid (S-1133, NU-Chek PREP, Inc., Elysian, MN, Cat. # S-1133) dissolved in 60% ethanol. After 15 min incubation at 37° C. in a shallow water bath, the blood was centrifuged at 800 g for 10 minutes at 4° C., the supernatants collected, and leukotriene and prostaglandin levels measured by ELISA according to the manufacturer's directions (Cayman Chemical Company, Ann Arbor, Mich.). The assay was performed at a final concentration of 2.5% DMSO. Results of this assay are shown as follows:
# HWB/LTB4: Ionophore Induced LTB4 from Human Whole Blood
# 5-LO [2] = target: T1, 5-LO; assay: Fluorescence Intensity 5-LO Enzyme Assay; assay type: biochemical; conditions: recombinant human 5-LO crude lysate, H2DCFDA oxidation, 3 μM arachidonic acid
# Experimental: The enzyme assay is based on the oxidation of the non-fluorescent compound 2′,7′-dichlorodihydrofluorescein diacetate (H2DCFDA) to the fluorescent 2′,7′ dichlorofluorescein by 5-LO in an arachidonic acid-dependent reaction. Ester cleavage of the acetate groups of the substrate H2DCFDA must occur prior to oxidation. This is achieved through use of a crude cell lysate preparation of recombinant human 5-LO. The enzyme assay ([…]) contained 50 mM Tris (pH 7.5), 2 mM CaCl2, 2 mM EDTA, 3 μM arachidonic acid (Nu-Chek Prep; #S-1133), 10 μM ATP, 10 μM H2DCFDA (Invitrogen; #D399), inhibitor (varying concentration) and recombinant human 5-LO enzyme (1.25 μL crude lysate per well).
# Inhibitors (dissolved in DMSO) were plated into a 384-well assay plate (Corning #3654) at 1 μL followed by a 20 μL addition of a solution containing 5-LO enzyme and H2DCFDA. Enzyme and H2DCFDA were pre-incubated for 5 minutes to allow time for acetate group cleavage of the dye prior to addition to the assay plate. After a 10 minute preincubation of inhibitor and enzyme/dye mix, the assay was initiated by the addition of a substrate solution containing arachidonic acid and ATP. The enzymatic reaction was run for 20 min at room temperature and terminated by the addition of 40 μL of acetonitrile. Assay plates were read in a plate reader using standard wavelengths for fluorescein. […]
# 5-LO [3] = target: T2, 5-LO (Rattus norvegicus, UniProt P12527); assay: Carrageenan-induced eicosanoid production in the rat air pouch; assay type: in vivo; conditions: leukotriene levels in rat air pouch fluid, lower % = higher activity
# T2 construct: from tissue; host or cells: rat air pouch (Lewis rat, in vivo)
# T2 sequence (P12527 1-673): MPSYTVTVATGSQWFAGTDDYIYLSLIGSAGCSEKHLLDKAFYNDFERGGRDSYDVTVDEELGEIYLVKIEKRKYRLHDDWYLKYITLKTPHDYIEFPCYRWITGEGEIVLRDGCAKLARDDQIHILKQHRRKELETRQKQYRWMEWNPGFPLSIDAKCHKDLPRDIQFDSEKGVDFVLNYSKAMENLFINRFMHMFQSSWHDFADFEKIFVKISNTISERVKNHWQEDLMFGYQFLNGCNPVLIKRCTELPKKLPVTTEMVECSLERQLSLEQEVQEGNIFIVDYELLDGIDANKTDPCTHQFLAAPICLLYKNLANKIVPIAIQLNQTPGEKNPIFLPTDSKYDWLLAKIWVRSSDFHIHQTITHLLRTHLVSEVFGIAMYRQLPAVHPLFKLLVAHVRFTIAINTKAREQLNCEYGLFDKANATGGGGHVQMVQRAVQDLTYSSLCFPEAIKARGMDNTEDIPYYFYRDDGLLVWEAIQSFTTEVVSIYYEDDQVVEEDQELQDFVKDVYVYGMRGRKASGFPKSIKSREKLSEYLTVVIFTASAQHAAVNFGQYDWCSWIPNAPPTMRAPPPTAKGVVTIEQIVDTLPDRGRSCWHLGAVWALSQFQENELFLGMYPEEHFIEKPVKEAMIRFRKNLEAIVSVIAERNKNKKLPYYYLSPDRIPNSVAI
# Experimental: For a correct interpretation of the results, it is noted that the lower the % of control, the higher the activity of a test compound. Male Lewis rats (175-200 g), Charles River Laboratories, Wilmington, Mass.) were used in the study. Air pouches were produced by subcutaneous injection of 20 ml of sterile air into the intrascapular area of the back. Pouches were allowed to develop for 1 day. Animals (6 per group) were fasted with free access to water for 16 to 24 hours prior to drug administration. Drugs or vehicle were administered by gavage 1 hour prior to injection of 2 ml of a 1% suspension of carrageenan (FMC BioPolymer, Philadelphia, Pa., Cat. # GP209-NF) dissolved in saline into the pouch. At 3 hours post-carrageenan injection, 1 ml of 50 μg/ml calcium ionophore in saline (A23187, Sigma Chemical Co, St. Louis, M, Cat. #C-7522) was injected into the pouch and the pouch fluid collected 10 minutes later by lavage. The fluid was centrifuged at 3500 rpm for 10 minutes at 4° C., and the supernatants were collected for analysis. Leukotriene levels were quantitated by ELISA according to the manufacturer's directions (Cayman Chemical Company, Ann Arbor, Mich.).
# [4] = Emesis evaluation in beagle dogs; assay type: in vivo; conditions: for emesis / emesis (number of dogs): dogs
# Experimental: Experiments were undertaken to differentiate local gastrointestinal emetic stimuli during dissolution and absorption of an oral compound from emetic stimuli produced during systemic exposure through the bloodstream. […] These findings were observed after 8-12 kg purpose-bred beagle dogs were administered 4-(3-{[4-(1-methyl-1H-pyrazol-5-yl)phenyl]thio}phenyl)tetrahydro-2H-pyran-4-carboxamide by IV infusion, using a loading dose followed by a slow infusion to attain a peak blood level over 30 minutes to 1 hour in duration. More specifically, compounds were diluted in phosphate buffered saline to a concentration where 10 ml/kg total volume was administered through an intravenous catheter using an infusion pump, with approximately 90% of the total dose being delivered in the first 5 minutes, and the remaining dose administered over the next 25 minutes. Similar delivery methods to produce an exposure that approximates the systemic pharmacokinetic profile seen with oral delivery are anticipated to give similar results. More rapid methods of administration and the resultant high plasma concentrations are not anticipated to discriminate useful compounds from non-useful compounds. For example, IV bolus administration may produce a higher peak plasma concentration and systemic gastrointestinal effects than those achieved for compounds that following absorption from the GI tract, would have acceptable peak plasma concentrations and therapeutic efficacy. […] Periodic serum and plasma samples were obtained during the first 6 hours to document systemic inhibition of the 5-lipoxygenase enzyme as well as exposure levels of the compound. […] In one study, 4-(3-(4-(2-methyl-1H-imidazol-1-yl)phenylthio)phenyl)-tetrahydro-2H-pyran-4-carboxamide was administered intravenously at 10 mg/kg, 30 mg/kg and 60 mg/kg as well as 30 mg per kg by the oral route. […] In another experiment, 4-(3-{[4-(1-methyl-1H-pyrazol-5-yl)phenyl]thio}phenyl)tetrahydro-2H-pyran-4-carboxamide was administered orally at doses of 100 mg per kg, 300 mg per kg, and 600 mg per kg, with emesis only observed in 2 dogs at 100 mg per kg and one dog at 300 mg per kg.
# [5] = clinical trial; cited from earlier work
# 5-lipoxygenase enzyme = assay: Systemic inhibition of the 5-lipoxygenase enzyme in dogs (emesis study); assay type: in vivo, beagle dogs; conditions: 5 mg/kg IV
# Experimental: Experiments were undertaken to differentiate local gastrointestinal emetic stimuli during dissolution and absorption of an oral compound from emetic stimuli produced during systemic exposure through the bloodstream. […] These findings were observed after 8-12 kg purpose-bred beagle dogs were administered 4-(3-{[4-(1-methyl-1H-pyrazol-5-yl)phenyl]thio}phenyl)tetrahydro-2H-pyran-4-carboxamide by IV infusion, using a loading dose followed by a slow infusion to attain a peak blood level over 30 minutes to 1 hour in duration. More specifically, compounds were diluted in phosphate buffered saline to a concentration where 10 ml/kg total volume was administered through an intravenous catheter using an infusion pump, with approximately 90% of the total dose being delivered in the first 5 minutes, and the remaining dose administered over the next 25 minutes. Similar delivery methods to produce an exposure that approximates the systemic pharmacokinetic profile seen with oral delivery are anticipated to give similar results. More rapid methods of administration and the resultant high plasma concentrations are not anticipated to discriminate useful compounds from non-useful compounds. […]
IC50 (5-LO [1]),IC80 (5-LO [1]),IC90 (5-LO [1]),IC50 (5-LO [2]),% of Control (5-LO [3]; dose 1 mg/kg by gavage),% of Control (5-LO [3]; dose 3 mg/kg by gavage),% of Control (5-LO [3]; dose 10 mg/kg by gavage),"% of Control (5-LO [3]; dose 3 mg/kg by gavage, 3 mg/kg)","% of Control (5-LO [3]; dose 3 mg/kg by gavage, listed as 4-(3-{[4-(1-methyl-1H-pyrazol-5-yl)phenyl]thio}phenyl)tetrahydro-2H-pyran-4-carb, 3 mg/kg)",Compound,"emesis ([4]; intravenously at 10, 30 and 60 mg/kg and 30 mg per kg oral)",nausea or emesis [5],"nausea and emesis ([4]; beagle dogs, IV infusion (loading dose followed by slow infusion))",emesis ([4]; 5 mg/kg IV),"emesis (number of dogs) ([4]; another experiment, oral 100 mg per kg)","emesis (number of dogs) ([4]; another experiment, oral 300 mg per kg)","emesis ([4]; another experiment, oral 600 mg per kg)","emesis ([4]; oral route, doses of 10 and 100 mg per kg)",inhibition of the 5-LO enzyme (5-lipoxygenase enzyme)
0.152 µM,0.357 µM,1.31 µM,0.204 µM,25.74 % of Control,0 % of Control,0 % of Control,,,"Cn1nccc1-c1ccc(Sc2cccc(C3(C(N)=O)CCOCC3)c2)cc1F [(Ia), 4-(3-{[3-fluoro-4-(1-methyl-1H-pyrazol-5-yl)phenyl]thio}phenyl)tetrahydro-2H-pyran-4-carboxamide]",,,,,,,,,
,,,,,,,,,"Cc1nccn1-c1ccc(Sc2cccc(C3(C(N)=O)CCOCC3)c2)cc1 [4-(3-(4-(2-methyl-1H-imidazol-1-yl)phenylthio)phenyl)-tetrahydro-2H-pyran-4-carboxamide, reference compound]",Emesis was observed in all dogs,30 % of human subjects,,,,,,,
0.135 µM,0.397 µM,0.716 µM,0.229 µM,20.24 % of Control,,2.30 % of Control,5.23 % of Control,20 % of Control,"Cn1nccc1-c1ccc(Sc2cccc(C3(C(N)=O)CCOCC3)c2)cc1 [(Ib), 4-(3-{[4-(1-methyl-1H-pyrazol-5-yl)phenyl]thio}phenyl)tetrahydro-2H-pyran-4-carboxamide]",,,produce nausea and emesis through systemic exposure,no observed emesis,2 dogs,one dog,No emesis was observed,emesis in only one dog at 100 mg per kg,100%

# Reference: patent US7772269B2, “Pyrazole analogs” (Pfizer Inc., priority 2006, dated 2010)
